{"source": "paper PMC4409337", "about": "“Immucillins Impair Leishmania (L.) infantum chagasi and Leishmania (L.) amazonensis Multiplication In Vitro” (PLoS ONE, 2015)", "key": {"[1]": {"tested_on": "Nucleoside hydrolase NH36 of L. (L.) donovani", "assay_type": "biochemical, Leishmania (L.) donovani", "conditions": "substrate of NH36; for k cat /K m: catalytic efficiency; for K m / k cat: 25°C, 50 mM Hepes pH 7.4", "description": "(§1) BL21DE3 E.coli were transformed with the synthetic plasmid pET 28b encoding the gene of NH36 of Leishmania (L.) donovani (EMBL, Genbank and DDJB data bases, access number AY007193) with a His6tag at the C-terminal. Expression was induced with 0.5 mM IPTG and overnight incubation at 20°C. Purification of NH36 was performed on a column of Ni-NTA Superflow resin (Qiagen, USA) eluted by a stepwise imidazole gradient and monitored by SDS-polyacrylamide gel electrophoresis and protein assay. The extinction coefficient of NH36 is 21.437 mM^-1 cm^-1 at 280 nm, as calculated with the ProtParam program from ExPASy, and was used to estimate protein concentration (http://ca.expasy.org/seqanalref/). The yield of NH36 after purification was 11.87 mg per Liter of bacterial growth culture. Non-specific His-proteins with weak interactions were eluted with 50–100 mM imidazole (S1 Fig). The purified NH36 started to elute with 150 mM imidazole. We used 250 mM of imidazol in elution buffer for purification of NH36.\nSteady-state kinetic rates for NH36 were determined on the substrates inosine, guanosine, adenosine, uridine and cytidine. Hypoxanthine and adenine formation were coupled to xanthine oxidase (12.9 mM^-1 cm^-1 at 293 nm and 15.2 mM^-1 cm^-1 at 305 nm, respectively), and the others were followed by direct uv absorbance changes resulting from cleavage of the N-ribosidic bond. Reaction mixtures contained 50 mM Hepes (pH 7.4), 100 mM NaCl and 5 mM of DTT. One unit, and 0.1 unit of xanthine oxidase (XOD) were used as the coupling enzyme to the adenosine and inosine assays, respectively. Spectral changes for hydrolysis of guanosine, uridine and cytidine were 5.4 mM^-1 cm^-1 at 257 nm,1.8 mM^-1 cm^-1 at 280 nm and 1.8 mM^-1 cm^-1 at 288 nm, respectively. Variable concentrations of substrate and appropriate amounts of purified NH36 were added in all assays. The hydrolysis of nucleosides to bases and ribose was followed by continuous recording of optical absorbance after addition of the enzyme, in a CARY 300 UV-visible spectrophotometer. Control rates with no enzyme addition were subtracted from initial rates. Reactions with substrates were conducted at 25°C using 1 cm path length cuvettes containing 1 mL reaction volumes. Kinetic parameters of NH36 were obtained by fitting initial rates to the Michaelis−Menten equation using GraFit 5 (Erithacus Software)."}, "NH of L. (L.) major": {"tested_on": "NH of L. (L.) major", "set-up": "method as in PMID 10409664", "conditions": "ref 13; cited from earlier work"}, "[2]": {"tested_on": "nucleoside hydrolase from Leishmania (L.) donovani", "set-up": "method as in PMID 11738828", "conditions": "NH cloned in pET-22; cited from earlier work"}, "[3]": {"tested_on": "L. (L.) infantum chagasi promastigotes", "experiment": "In vitro growth of promastigotes in FBS supplemented Schneider's insect medium", "assay_type": "cell-based, Leishmania (L.) infantum chagasi", "text": "The strain of Leishmania (L.) infantum chagasi MHOM/BR/1974/PP75 was obtained from the Leishmania Type Culture Collection (Fundacão Oswaldo Cruz, Rio de Janeiro, RJ, Brazil) and the strain of Leishmania (L.) amazonensis (MHOM/BR/1975/Josefa) was kindly given by Professor Rosâ[…] from Universidade Federal do Rio de Janeiro. Promastigotes were maintained by weekly transfers in screw-capped glass tubes containing Schneider's insect medium (Sigma Aldrich, MO, USA), pH 7.0, supplemented with 10% Fetal Bovine Serum (FBS) at 26°C. […] Log phase promastigotes of L. (L.) infantum chagasi and L. […] Promastigotes were recorded in a Neubauer chamber after 24, 48, 72 and 96 hours of incubation at 26°C. […] The concentration of adenosine in Schneider s insect serum supplemented medium was assessed by HPLC using a C-18 reverse-phase column as described."}, "[4]": {"tested_on": "L. (L.) amazonensis promastigotes", "experiment": "In vitro growth of promastigotes in FBS supplemented Schneider's insect medium", "assay_type": "cell-based, Leishmania (L.) amazonensis", "conditions": "Leishmania amazonensis", "text": "The strain of Leishmania (L.) infantum chagasi MHOM/BR/1974/PP75 was obtained from the Leishmania Type Culture Collection (Fundacão Oswaldo Cruz, Rio de Janeiro, RJ, Brazil) and the strain of Leishmania (L.) amazonensis (MHOM/BR/1975/Josefa) was kindly given by Professor Rosâ[…] from Universidade Federal do Rio de Janeiro. Promastigotes were maintained by weekly transfers in screw-capped glass tubes containing Schneider's insect medium (Sigma Aldrich, MO, USA), pH 7.0, supplemented with 10% Fetal Bovine Serum (FBS) at 26°C. Stock solutions (20 mM) of immucillins IA […] prepared using Milli-Q purified water. Log phase promastigotes of L. (L.) infantum chagasi and L. […] Promastigotes were recorded in a Neubauer chamber after 24, 48, 72 and 96 hours of incubation at 26°C. […] We also assayed the possibility of reversing the inhibitory effect of IA in RPMI medium by the addition of adenosine to the culture medium. The concentration of adenosine in Schneider s insect serum supplemented medium was assessed by HPLC using a C-18 reverse-phase column as described."}, "[5]": {"experiment": "Macrophage viability and cytotoxicity (Trypan Blue)", "conditions": "female, BALB/c, mouse, peritoneal macrophages", "description": "(§2) Alternatively, the immucillins were added at 0, 24 and 48 h and viability assessed after 72h. […] The amastigote growth was assessed 24 h after the last drug addition, on 200 cells in Giemsa stained coverslips and expressed as phagocytic index = percent of infected macrophages x average number of intracellular amastigotes. […] All experiments with mice were reviewed and approved by the Animal Care and Use Committee of the Instituto de Biofísica Carlos Chagas Fo.-UFRJ (CAUAP-CONCEA, Brazil, IMPPG-016) and were performed according to the guidelines of the National Institutes of Health, USA. We made all efforts in order to minimize animal suffering."}, "[6]": {"tested_on": "L. (L.) infantum chagasi promastigotes", "experiment": "Transmission electron microscopy of treated promastigotes", "assay_type": "cell-based, Leishmania (L.) infantum chagasi", "conditions": "10 μM, 72 h", "text": "The cells were washed with Milli Q water, dehydrated in increasing concentration of acetone and embedded in Epon (1: 1) (PolyBed 812). The ultrathin sections were obtained, contrasted with 5% uranyl acetate and lead citrate and observed under a Joel 1200 electron microscope."}, "[7]": {"tested_on": "intracellular amastigotes of L. (L.) infantum chagasi", "experiment": "Replication of intracellular amastigotes in infected peritoneal macrophages (phagocytic index)", "assay_type": "cell-based, Leishmania (L.) infantum chagasi", "conditions": "for EC50: drugs (0.5–10 μM) added at 0 h, incubation 24 h, linear interpolation, read-out: EC50 (CI 95%)", "description": "as §2, with “Alternatively, the immucillins were added at 0, 24 and 48 h and viability assessed after 72h.” left out"}, "[8]": {"molecular_target": "T1, Nucleoside hydrolase NH36 (Leishmania donovani, UniProt Q8WQX2)", "T1 sequence (Q8WQX2 1-314)": "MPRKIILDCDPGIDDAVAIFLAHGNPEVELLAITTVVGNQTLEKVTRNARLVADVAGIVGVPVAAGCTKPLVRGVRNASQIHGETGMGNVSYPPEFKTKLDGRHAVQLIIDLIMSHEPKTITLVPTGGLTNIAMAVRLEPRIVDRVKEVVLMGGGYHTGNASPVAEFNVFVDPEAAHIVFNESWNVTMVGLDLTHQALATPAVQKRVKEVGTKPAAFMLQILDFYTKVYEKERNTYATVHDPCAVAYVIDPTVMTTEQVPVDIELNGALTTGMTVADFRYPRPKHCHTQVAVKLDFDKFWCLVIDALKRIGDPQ", "experiment": "Ki determination: inhibition of NH36 activity by immucillins", "assay_type": "biochemical, Leishmania (L.) donovani", "conditions": "10 mM inosine as substrate, 0.5 nM NH36, pH 7.4, room temperature", "description": "as §1\nThe reaction mixtures contained 10 mM inosine as substrate, 50 mM Hepes (pH 7.4), 100 mM KCl, 5 mM DTT and 1 unit XOD. The hydrolysis of inosine to hypoxanthine and ribose was followed by continuous reading of optical absorbance at 293 nm, using variable concentrations of inhibitors in a CARY 300UV-visible spectrophotometer. Controls without enzyme and without inhibitors were included in all inhibition assays. The inhibition constant for each immucillin was obtained, using GraFit 5 (Erithacus Software), by fitting initial rates with variable inhibitor concentrations to the equation (vi/v0 = [S] / Km + [S] + Km[I] / Ki), where v i is the initial rate in the presence of the inhibitor, v 0 is the initial rate in the absence of the inhibitor, K m is the Michaelis constant for inosine, [S] and [I] are inosine and inhibitor concentrations, respectively, and Ki is the inhibition constant."}, "[9]": {"tested_on": "strains of L. (L.) infantum chagasi", "set-up": "method as in PMID 23747751", "conditions": "cited from earlier work"}, "[10]": {"tested_on": "intracellular amastigotes of L. (L.) infantum chagasi", "conditions": "cited from earlier work"}, "[11]": {"tested_on": "amastigotes of L. (L.) amazonensis", "set-up": "method as in PMID 18660990", "conditions": "ref 43; read-out: IC50 against amastigotes; cited from earlier work"}, "[12]": {"conditions": "single 10 μM dose at 0 h, compared to untreated controls"}}, "note": "Like-named read-outs stand apart in the source and are kept apart here."}
{"molecule": "O=c1[nH]cnc2c1ncn2[C@@H]1O[C@H](CO)[C@@H](O)[C@H]1O", "note": "[Inosine]", "values": [{"measurement": "k cat /K m", "setting": "[1]", "result": 31800, "unit": "M⁻¹ s⁻¹"}, {"measurement": "K m", "setting": "[1]", "result": "340 ± 30", "unit": "µM"}, {"measurement": "k cat", "setting": "[1]", "result": "10.8 ± 0.3", "unit": "s ^-1"}, {"measurement": "k cat", "setting": "NH of L. (L.) major", "result": 119, "unit": "s⁻¹"}, {"measurement": "k cat", "setting": "[2]", "result": 7.6, "unit": "s⁻¹"}]}
{"molecule": "O=c1[nH]cnc2c(CNC(CO)CO)c[nH]c12", "note": "[SMIH]", "values": [{"measurement": "IC50", "setting": "[3]; Leishmania infantum, drugs added at 0, 24 and 48 h, after 48h, read-out: IC50 on promastigote growth, daily addition", "result": 1, "unit": "nM"}, {"measurement": "IC50", "setting": "[3]; Leishmania infantum, drugs added at 0, 24 and 48 h, at 72 and 96 h, read-out: IC50 on promastigote growth, daily addition", "result": "< 0.01", "unit": "nM"}, {"measurement": "IC50", "setting": "[3]; Leishmania infantum, single addition at 0 h, evaluated after 48 hours, 26°C, read-out: IC50 (CI 95%) on L. (L.) infantum chagasi promastigotes in vitro growth", "result": 8, "unit": "nM"}, {"measurement": "inhibition at 0.05 µM", "setting": "[3]; Leishmania infantum, 50 nM, after 96 h of culture, read-out: percent inhibition on L. (L.) infantum chagasi promastigote growth", "result": 99, "unit": "%"}, {"measurement": "reduction of the IC50 by daily addition compared to single addition", "setting": "[3]; daily addition (0, 24, 48 h) vs single addition (Table 2), 48 h", "result": 88, "unit": "%"}, {"measurement": "inhibition at 0.05 µM", "setting": "[4]; 50 nM, after 96 h of culture, read-out: percent growth inhibition on L. (L.) amazonensis", "result": 61, "unit": "%"}, {"measurement": "inhibition at 500 µM", "setting": "[4]; 500 μM, after 96 h of culture, read-out: percent inhibition on L. (L.) amazonensis replication", "result": 71, "unit": "%"}, {"measurement": "IC50", "setting": "[4]; single addition at 0 h, evaluated after 48 hours, 26°C, read-out: IC50 (CI 95%) on L. (L.) amazonensis promastigotes in vitro growth", "result": 0.007, "unit": "µM"}, {"measurement": "CC50 at 48 h", "setting": "[5]", "result": 800, "unit": "µM"}, {"measurement": "effect on cellular ultrastructure of promastigotes", "setting": "[6]", "result": "complete alteration of their cellular morphology with intense cytoplasm vacuolization, enlarged vesicles and alterations in the kinetoplasts"}, {"measurement": "reduction in the number of intracellular amastigotes", "setting": "[7]; 10 μM added daily at 0, 24 and 48 h", "result": 95, "unit": "%"}, {"measurement": "EC50", "setting": "[7]; Leishmania infantum, Peritoneal macrophage", "result": 7.1, "unit": "µM"}, {"measurement": "decrease of intracellular amastigote parasite load", "setting": "[7]; low micromolar concentrations, single to daily protocol", "result": "74–95%"}, {"measurement": "reduction in the number of intracellular amastigotes", "setting": "[7]; [12]", "result": 70, "unit": "%"}, {"measurement": "Ki", "setting": "[8]", "result": "> 5", "unit": "µM"}]}
{"molecule": "O=c1ccn([C@@H]2O[C@H](CO)[C@@H](O)[C@H]2O)c(=O)[nH]1", "note": "[Uridine]", "values": [{"measurement": "k cat /K m", "setting": "[1]", "result": 16000, "unit": "M⁻¹ s⁻¹"}, {"measurement": "K m", "setting": "[1]", "result": "2,100 ± 561 μM"}, {"measurement": "k cat", "setting": "[1]", "result": "34.3 ± 4.2", "unit": "s ^-1"}, {"measurement": "k cat", "setting": "NH of L. (L.) major", "result": 32, "unit": "s⁻¹"}, {"measurement": "k cat", "setting": "[2]", "result": 9.5, "unit": "s⁻¹"}]}
{"molecule": "Glucantime", "values": [{"measurement": "IC50", "setting": "[9]; Leishmania strains isolated from dogs", "result": "20000 to 32300", "unit": "µM"}, {"measurement": "IC50", "setting": "[9]; human strains of L. (L.) infantum chagasi", "result": "430 to 5760", "unit": "µM"}, {"measurement": "IC50", "setting": "[10]; ref 43, read-out: IC50 against replication of amastigotes", "result": 348, "unit": "µM"}, {"measurement": "IC50", "setting": "[10]; ref 44, read-out: IC50 against intracellular amastigotes", "result": 1420, "unit": "µM"}, {"measurement": "IC50", "setting": "[10]; ref 45, read-out: IC50 against intracellular amastigotes", "result": 31.1, "unit": "µM"}, {"measurement": "IC50", "setting": "[11]", "result": 62.6, "unit": "µM"}, {"measurement": "EC50", "setting": "[7]", "result": 7.1, "unit": "µM"}, {"measurement": "reduction in the number of intracellular amastigotes", "setting": "[7]; [12]", "result": 70, "unit": "%"}]}
